Assay results as given in patent US20080063714A1, “Compositions for Encapsulation and Controlled Release” (priority 2003, published 2008).

B1: Comparative Example: Unencapsulated adenosine deaminase, approximately 110 μg/mL in 0.1% trifluoroacetic acid in water (pH 2.0) (protein, UniProt P56658 2-363, looked up)
Adenosine deaminase: AQTPAFNKPKVELHVHLDGAIKPETILYYGRKRGIALPADTPEELQNIIGMDKPLSLPEFLAKFDYYMPAIAGCREAVKRIAYEFVEMKAKDGVVYVEVRYSPHLLANSKVEPIPWNQAEGDLTPDEVVSLVNQGLQEGERDFGVKVRSILCCMRHQPSWSSEVVELCKKYREQTVVAIDLAGDETIEGSSLFPGHVKAYAEAVKSGVHRTVHAGEVGSANVVKEAVDTLKTERLGHGYHTLEDATLYNRLRQENMHFEVCPWSSYLTGAWKPDTEHPVVRFKNDQVNYSLNTDDPLIFKSTLDTDYQMTKNEMGFTEEEFKRLNINAAKSSFLPEDEKKELLDLLYKAYGMPSPASAEQCL

What was measured:
[1] = Penicillin G degradation in acidic solution pH 2.0; assay type: physicochemical; settings: pH 2.0, 2 hours, 37° C.
Source text: For example, particles of the present invention can protect penicillin G from degradation in acidic environments. When exposed to an acidic environment, such as a solution with pH less than about 5.0, penicillin G is rapidly degraded. […] Penicillin G may be encapsulated in particles of the present invention, such as those comprising triazine derivatives of formula I, and protected from degradation in acidic environment. For example, penicillin G encapsulated in crosslinked particles comprising 4-{[4-(4-carboxyanilino)-6-(3-methyl-1H-imidazol-3-ium-1-yl)-1,3,5-triazin-2-yl]amino}benzoate and a mixture of magnesium and aluminum cations may be exposed to an acidic solution with a pH of 2.0 for 2 hours at 37° C.

adenosine deaminase = biological target: T1, adenosine deaminase (Bos taurus, UniProt P56658); test: Adenosine deaminase activity (inosine by HPLC) after exposure to acid or water; assay type: biochemical; settings: after 2 hours in 0.1% trifluoroacetic acid pH 2.0 at room temperature
T1 construct: purchased Sigma lot no; 70H8145 (catalogue number not given)
T1 sequence (P56658 2-363 limits assumed): B1 Adenosine deaminase
Protocol: One portion of the beads was added to a vial containing 20 ml of a 0.1% trifluoroacetic acid in water (pH of 2.0) test solution. The beads were exposed to the acidic test solution at room temperature for two hours. The acidic test solution was then decanted and discarded. The beads were rinsed with 10 mL deionized water. The water was then decanted and discarded. Phosphate buffer (20 mL, pH of 7.0 with 0.15 M NaCl) was added to the vial with the remaining beads and the vial was agitated on a wrist action shaker for one hour to dissolve the beads. The resulting solution was filtered through a 0.22 μm poly(vinylidene fluoride) filter.
The inosine peak area was 733 units.
The other portion of the beads was added to a vial containing 20 mL of deionized water (pH approx. 7.5). The beads were exposed to the water solution for two hours. The water was then decanted and discarded. Phosphate buffer (20 mL, pH of 7.0 with 0.15 M NaCl) was added to the vial with the remaining beads and the vial was agitated on a wrist action shaker for one hour to dissolve the beads. […] Adenosine deaminase activity was determined as described above. […]
Adenosine deaminase was added to a 20 mL of 0.1% trifluoroacetic acid in water (pH of 2.0) solution to prepare an acidic test solution with a concentration of approximately 110 μg/mL adenosine deaminase. […] Adenosine deaminase activity was determined as described above. […]

| Molecule | Degradation of penicillin G in acidic solution [1] | Adenosine deaminase activity, inosine peak area (adenosine deaminase) [units] |
| --- | --- | --- |
| CC1(C)S[C@@H]2[C@H](NC(=O)Cc3ccccc3)C(=O)N2[C@H]1C(=O)O [Penicillin G] | almost completely degraded |  |
| B1 |  | 5 |
